The target in one data set is Tif1 A64Q point mutant (Saccharomyces cerevisiae, UniProt P10081, A64Q). Kind of data set: DARTS target mutation analysis. It is filed as binding, yeast. The settings on record: FIG. 4C. The source says: This enrichment was confirmed by western blotting using the TAP-tagged (Ghaemmaghami et al. (2003) Nature 425: 737-741) eIF4A yeast strain (FIG. 10). […] While the alanine is conserved throughout fungi and animals, plants have a glutamine at this position and the bulkier side chain is hypothesized to protect plant eIF4A from resveratrol inhibition by minimizing self binding.
Tif1 A64Q point mutant, sequence (P10081 whole entry A64Q): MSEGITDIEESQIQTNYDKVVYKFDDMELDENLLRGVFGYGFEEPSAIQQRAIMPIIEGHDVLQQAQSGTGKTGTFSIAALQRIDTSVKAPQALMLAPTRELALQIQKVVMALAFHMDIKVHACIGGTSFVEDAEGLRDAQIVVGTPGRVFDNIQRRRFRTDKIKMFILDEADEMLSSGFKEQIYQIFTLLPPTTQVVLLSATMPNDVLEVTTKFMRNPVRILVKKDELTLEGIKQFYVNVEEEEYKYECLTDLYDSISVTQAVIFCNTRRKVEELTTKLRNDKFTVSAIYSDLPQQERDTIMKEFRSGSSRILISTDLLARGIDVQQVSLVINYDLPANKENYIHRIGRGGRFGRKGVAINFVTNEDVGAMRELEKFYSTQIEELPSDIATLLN

Data set [1] addresses T1, in vitro translated firefly luciferase (Photinus pyralis, UniProt P08659).
T1 construct: made in house
Kind of data set: Effect on firefly luciferase reaction in luciferase assay kits. It is filed as biochemical. The source says: Our data in FIG. 4D were based on the Dual-Glo kit, in which the luciferase reaction is not affected by resveratrol. Also, there was no resveratrol added to the in vitro luciferase assay reactions in FIG. 4D. Rather, resveratrol was used to treat cells and washed away before the cells were lysed for luciferase assay.

The nature of data set [2]: Precipitation in yeast culture medium. The class given is physicochemical. The settings on record: final concentration ˜1 mM. The source says: (§1) For cytotoxic and cytostatic small molecules, deletion mutants in their target often would have increased sensitivity to the drug (and overexpression could decrease sensitivity). Indeed, this is the basis for the elegant haploinsufficiency profiling (HIP) strategy (Giaever et al. (1999) Nat Genet. 21: 278-283). However, an inherent limitation of this type of fitness-based methods is that they are applicable only to drugs that affect cell growth/viability, i.e., cytotoxic or cytostatic drugs. […] A key advantage of DARTS is that it is independent of the drug's biological phenotype, and thus is not limited to the studies of cytotoxic/cytostatic drugs or drugs that induce transcriptional or morphological changes which have been the limitation of previous methods.

Data set [3] relates to yeast (wild type, tif1 or tif2 deletion mutants). Description: Yeast growth inhibition. The settings on record: final concentration ˜1 mM. The class given is cell-based.
Text: as §1

For a further data set, the system named is C. elegans N2 worms. Description: C. elegans lifespan analysis. The class given is in vivo. The settings on record: resveratrol 50 μM. From the text: (§2) FIG. 4A: Chemical structure of resveratrol. FIG. 4B: Yeast cell lysates and human HeLa cell lysates were each treated with resveratrol in vitro followed by thermolysin digestion and silver staining. Protected bands of similar size were detected. FIG. 4C: Resveratrol protects TAP-tagged eIF4A, but not an unrelated Htb2, protein from proteolysis. Arrow: protein protected from subtilisin proteolysis (H. sapiens (SEQ ID NO:1), M. musculus (SEQ ID NO:2), X. laevis (SEQ ID NO:3), D. melanogaster (SEQ ID NO:4), C. elegans (SEQ ID NO:5), S. purpuratus (SEQ ID NO:6), C. reinhardtii (SEQ ID NO:7), A. thaliana (SEQ ID NO:8), H. andersenii (SEQ ID NO:9), S. cerevisiae (SEQ ID NO:10)). FIG. 4D: Resveratrol inhibits eIF4A-dependent translation in HEK 293 cells as assayed by bicistronic translation reporters. […] FIG. 4E: eIF4A is required for longevity in resveratrol-treated animals. Resveratrol (50 μM) lengthens the lifespan of wild-type N2 worms fed control (gfp) RNAi (green), but not worms fed eIF4A (inf-1) RNAi (red) or daf-16 RNAi (blue). gfp(RNAi), mVeh=19 (n=74), mRSV=20 (n=78), P=0.0006***; inf-1(RNAi), mVeh=26 (n=76), mRSV=24 (n=79), P=0.4687; daf-16(RNAi), mVeh=17 (n=78), mRSV=17 (n=76), P=0.3305. m, mean lifespan (days of adulthood); n, number of animals tested.
N2 wild-type strains were maintained at 20° C. on standard nematode growth medium (NGM) seeded with E. coli OP50 as described (Brenner (1974) Genetics 77: 71-94). E. coli RNAi strains were obtained from Open Biosystems; clones were verified by sequencing. To make NGM plates containing resveratrol or vehicle, 240 μl of a solution containing 2.5 mM resveratrol (or the equivalent amount of ethanol, for vehicle control), 20% DMSO, 20% ethanol, 10% phosphate buffered saline (PBS), and 50% ddH20 were spread on top of the NGM plate, making a 50 μM final concentration of resveratrol in the plate. Resveratrol was dissolved in 95% ethanol and stored in 4° C.
Lifespan analysis was conducted with N2 worms at 20° C. Eggs were added to NGM plates containing OP50. […]

For data set [4], the system named is eIF4A-dependent translation in HEK 293 cells. Description: In vivo translation assay with bicistronic dual-luciferase reporters. The class given is cell-based, human. The settings on record: HEK293, Dual-Glo.
Text: as §2
The molecular mechanisms underlying resveratrol's lifespan effect have been controversial (Howitz et al. (2003) Nature 425: 191-196; Kaeberlein et al. (2005) J Biol Chem 280: 17038-17045), and whether Sir2 serves as a direct target for resveratrol is an interesting problem that is being pursued. […]
HEK293 cells in DMEM+10% FBS were pre-treated with 50 μM resveratrol for 1 hr, and transfected with bicistronic translation reporter plasmids using LipoD293 DNA in vitro transfection reagent (SignaGen). […] Reporter activity was measured 33 hr post-transfection using the Dual-Glo luciferase assay system (Promega) with an Analyst HT plate reader (Molecular Devices). […]
On the technique in general: In a reporter assay the amount or activity of a reporter protein is the signal.

T1 sequence (P08659 whole entry): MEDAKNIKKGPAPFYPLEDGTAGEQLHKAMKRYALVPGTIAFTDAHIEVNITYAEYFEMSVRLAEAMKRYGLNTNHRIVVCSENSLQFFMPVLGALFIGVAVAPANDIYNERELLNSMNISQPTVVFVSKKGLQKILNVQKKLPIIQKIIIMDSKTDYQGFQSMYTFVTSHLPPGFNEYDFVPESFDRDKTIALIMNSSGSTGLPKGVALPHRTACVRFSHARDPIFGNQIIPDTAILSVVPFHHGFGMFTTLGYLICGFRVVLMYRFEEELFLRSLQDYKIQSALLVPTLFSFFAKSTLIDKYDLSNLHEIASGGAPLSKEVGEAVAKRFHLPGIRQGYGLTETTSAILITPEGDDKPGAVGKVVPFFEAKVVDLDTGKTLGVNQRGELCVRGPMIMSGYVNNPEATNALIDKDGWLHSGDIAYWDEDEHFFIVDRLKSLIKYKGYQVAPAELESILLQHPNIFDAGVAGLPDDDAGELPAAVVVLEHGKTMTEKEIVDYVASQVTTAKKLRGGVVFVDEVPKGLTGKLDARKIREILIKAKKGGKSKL

As for `Oc1ccc(C=Cc2cc(O)cc(O)c2)cc1` [resveratrol], the “effect of Tif1 A64Q point mutation on resveratrol protection” value on Tif1 A64Q point mutant is recorded as “confers resistance to resveratrol”. The firefly luciferase readout result in data set [1] (Bright-Glo kit (Promega #E2610)) is recorded as “significantly decreased”; in data set [1] (Dual-Glo kit (Promega #E2940)), “little or no inhibition”. Further, the “behaviour in culture medium” value in data set [2] is reported as “precipitated out of the culture medium”. Moreover, the “inhibition of yeast growth” value in data set [3] was “did not cause detectable inhibition of yeast growth”. The mean lifespan in the data set with C. elegans N2 worms (N2 worms fed daf-16(RNAi), vehicle 17, P=0.3305) is reported as 17 days of adulthood; with C. elegans N2 worms (N2 worms fed gfp(RNAi) control, vehicle 19, P=0.0006), 20 days of adulthood; in the data set on C. elegans N2 worms (N2 worms fed inf-1(RNAi) (eIF4A), vehicle 26, P=0.4687), 24 days of adulthood. Further, the “translation from the eIF4A-independent HCV IRES” value in data set [4] is “unaffected”. The “EMCV IRES-mediated translation” value in data set [4] (requires eIF4A) is “inhibited in a dose-dependent manner”. Further, the cap-dependent translation entry in data set [4] (requires eIF4A) is “inhibited in a dose-dependent manner”.

The record behind these values is patent US8703438B2, “Ligand binding stabilization method for drug target identification” (The Regents of the University of California, priority 2008, dated 2014).
